Source: patent US7678829B2, “Oculoselective drugs and prodrugs” (QLT Inc., priority 2004, dated 2010)

What was measured:
albino rabbits = assay: Corneal anesthesia measurements (Cochet's esthesiometer); assay type: in vivo, rabbit
Experimental: The effect of a 50 μl single instillation of 0.3%, 0.5%, 1.0% and 2.0% solution of compound 7 on corneal anesthesia, after a single instillation in the conjunctival sac of the right eyes of albino rabbits (N=5) was measured using a Cochet's esthesiometer (nylon thread: 0.12 mm diameter, 10 mm long). Corneal anesthesia was evaluated by the number of comeal mechanical stimuli necessary to induce a blinking reflex. The effect of drug solutions was compared with sterile 0.9% NaCl treated animals (control group) and 0.4% oxybuprocaine (Novesine®).

[1] = Accelerated stability test of 0.25% solutions in acetate buffer, HPLC; assay type: physicochemical; details: for projected shelf-life: conventional eye drop formulation, at room temperature
Experimental: An accelerated stability test was conducted on 0.25% solutions of compounds 6, 7, and 8 (Example 2) at 40° C. for 1, 2, 3, 4, 8 and 12 weeks and monitored for the disappearance of the prodrugs and appearance of the parent compound by HPLC analysis. The parent compound (referred to hereinafter as compound 4) has the formula: […]
The respective compounds were dissolved in an acetate buffer, pH 3.5 (0.018% sodium acetate, 0.135% acetic acid, 0.9% sodium chloride in water for injection) to obtain 0.25% solution. The stability of the compounds was determined at 40° C. for 1, 2, 3, 4, 8, and 12 weeks. The concentration of the parent compound as well as the concentrations of the prodrug compounds 6, 7, and 8 at each time point by HPLC method.

[2] = Ocular bioavailability, aqueous humor analyzed by HPLC; assay type: in vivo; details: rabbit aqueous humor
Experimental: Three rabbits were used per time point. The 50 μl test substance was administered in a single instillation using a micropipette into the conjunctival sac of the right and the left eyes. The rabbits were anesthetized with an intramuscular injection of Imalgéne® 1000 (ketamine 32 mg/kg), and Rompun® (xylasine 7.5 mg/kg). They were then desanguinated by cardiac puncture and thereafter euthanized by an overdose of pentobarbital. Immediately after death, the eyes were micro-dissected to obtain: cornea (C), aqueous humor (AH), and iris-ciliary body (ICB). All samples were stored at −80° C. Only aqueous humor (AH) samples were analyzed by HPLC.

Row | Structure (SMILES) | corneal sensitivity (local anesthetic activity) (albino rabbits; at 1%) | projected shelf-life [1] | level of the prodrug itself in aqueous humor [2] | corneal sensitivity (local anesthetic activity) (albino rabbits; 50 μl single instillation of 0.3%, 0.5%, 1.0% and 2.0% solution, compared to 0.4% oxybuprocaine) | relative stability (FIG. 1, percent degradation) ([1]; 0.25% solution, 40° C., pH 3.5, compared among compounds 6, 7 and 8)
1 | Cc1cc(O)c(O)cc1C(=O)OCC(CNC(C)(C)CNC(=O)C1CCOC1)OC(=O)C(C)(C)C (centres unmarked) [Compound 6, reference compound] | complete comeal sensitivity loss | 2.6 months | below the detection limit | – | –
2 | Cc1cc(O)c(O)cc1C(=O)OCC(CNC(C)(C)CNC(=O)C1CCOC1)OC(=O)C1(C)CC1 (centres unmarked) [Compound 7, 4,5-Dihydroxy-2-methyl-benzoic acid 3-{1,1-dimethyl-2-[(tetrahydro-furan-3-carbonyl)-amino]-ethylamino}-2-(1-methyl-cyclopropanecarbonyloxy)-propyl ester] | – | at least 18 months | also present in aqueous humor | no comeal sensitivity | most stable
3 | Cc1cc(O)c(O)cc1C(=O)OCC(CNC(C)(C)CNC(=O)C1CCOC1)OC(=O)C1CC1(C)C (centres unmarked) [Compound 8, 4,5-dihydroxy-2-methyl-benzoic acid 2-(2,2-dimethyl-cyclopropanecarbonyloxy)-3-{1,1-dimethyl-2-[(tetrahydro-furan-3-carbonyl)-amino]-ethylamino}-propyl ester] | – | 7.9 months | – | – | –
